Experimental data published in PMC6583776 (Journal of the American Chemical Society, 2019).

Assays:
[1] = tested on: cap-dependent translation (Firefly luciferase); assay type: biochemical; details: 1 μM compound, Krebs-2 extracts, relative to DMSO
[2] = tested on: Dengue virus (serotype 2, Thailand 16681 strain); assay type: cell-based; details: Huh7.5.1 cells, MOI 0.1, 2 μM compound for 3 h, RNA 48 h post-infection
[3] = tested on: translation; details: ref 9p; cited from earlier work
[4] = tested on: HCV (HCVcc-Luc) infection of Huh7.5.1 cells; test: HCV infection inhibition assay; assay type: cell-based; details: relative to aglaroxin C (6)
[5] = tested on: Huh7.5.1 cells; test: Cytotoxicity, CellTiter-Glo Cell Viability Luminescent Assay; assay type: cell-based
[6] = tested on: HCV IRES-dependent translation (Renilla luciferase); assay type: biochemical; details: 1 μM compound, Krebs-2 extracts, relative to DMSO
[7] = tested on: HCV; assay type: cell-based; details: time-of-addition; racemic compounds
[8] = tested on: hepatitis C viral (HCV) entry; details: at a low μM concentration; cited from earlier work

Molecule	translation inhibition of firefly luciferase (cap-dependent) [1]	translation inhibition (in words) [3]	inhibition of HCV mRNA (IRES-dependent) translation [6]	anti-HCV activity, compound added 3 h after infection was initiated [7]	anti-HCV activity, compound added together with the virus [7]	also measured
CONC(=O)[C@H]1[C@@H](O)[C@@]2(O)c3c(OC)cc(OC)cc3O[C@@]2(c2ccc(OC)cc2)[C@@H]1c1ccccc1 [CR-1–31-B]	strong inhibition					
COc1ccc([C@@]23Oc4cc(OC)cc(OC)c4[C@]2(O)[C@H](O)[C@H](C(=O)N(C)C)[C@H]3c2ccccc2)cc1 [rocaglamide]						inhibition of Dengue virus infection [2]: inhibited
COc1ccc([C@@]23Oc4cc(OC)cc(OC)c4[C@]2(O)C2=C(C(=O)N4CCC[C@H]4N2)[C@H]3c2ccccc2)cc1 [compound 5, aglaiastatin]		promising translation inhibitor				
COc1ccc([C@@]23Oc4cc(OC)cc(OC)c4[C@]2(O)c2nc(-c4cccc(OC)c4)[nH]c(=O)c2[C@H]3c2ccccc2)cc1 [12s]	minimal		not inhibited	partially lost their activity	maximal anti-HCV activity	inhibition of HCV infection in comparison to 6 (fold) [4]: three-fold greater inhibition; cell death at 200 μM [5]: less than 50%; cell death reached [5]: < 50%; maximum cytotoxicity plateau, cell death [5]: 35%
aglaroxin C [compound 6]	minimal	only moderate translation inhibition	not inhibited	partially lost their activity	maximal anti-HCV activity	inhibition of HCV entry into host cells [8]: inhibited
